Laboratory results published in patent publication US8685976B2, “Cell adhesion promoting agent and method of promoting cell adhesion” (Kyoto University, priority 2008, dated 2014).
Entries after “also recorded” stand apart in the source; their conditions may differ. Read-outs that look alike come from different tables or passages of the source.

Tests used:
Jurkat cells [1] = assay: Cell adhesion assay by addition, Jurkat cells; type: cell-based, human; settings: Jurkat cells; for cell-adhesion promoting activity of adhesamine derivatives: FIG. 6
Procedure: 1 μL each of an aqueous solution of adhesamine (1), Type I collagen, poly-L-lysine hydrochloride, poly-L-ornithine hydrobromide, and fibronectin at a concentration of 50, 500, and 5000 μg/ml, was added to 96-well plate. 100 μL of HepG2 suspension (4×10^5 cells/mL) was added to each well. After 3-hour incubation at 37° C., non-adherent cells were removed by washing each well with PBS three times, and the attached cells were counted with a Neubauer counting chamber (Digital Bio). For Jurkat cells, 100 μL of cell suspension was added to each well at a density of 1×10^6 cells/ml. After 5-hour incubation at 37° C., non-adhered cells were removed by washing each well with PBS twice, and the attached cells were counted with a Neubauer counting chamber (Digital Bio). To calculate adhesion rates, firstly seeded cell numbers were assigned a value of 100%. As control tests, the same tests were conducted using wells supplied with only 1 μL of DMSO. Each assay was conducted in triplicate, and the means and standard derivations were calculated.
The comparison between adhesamine and its derivatives regarding cell adhesion promotion activity was conducted using Jurkat cells by way of reagent addition assay. 1 μL each of DMSO solutions of the compounds having concentrations of 60, 600, and 6000 μM were added to 96-well plates. The wells were supplied with 100 μL each of Jurkat cell suspensions (1×10^6 cells/mL). After 5-hour incubation at 37° C., non-adhered cells were removed by washing each well with PBS twice, and the attached cells were counted with a Neubauer counting chamber (Digital Bio). To calculate adhesion rates, firstly seeded cell numbers were assigned a value of 100%. As control tests, the same tests were conducted using well plates supplied with only 1 μL of DMSO. Each assay was conducted in triplicate, and the means and standard derivations were calculated.
However, since HepG2 cells have an intrinsic propensity to adhere to plastic tissue-culture plates, a test was conducted to determine whether the same effect was also obtained in the Jurkat cell line and human T-lymphocytes that are floating cells. Remarkably, 30% and 60% of the Jurkat cells attached to a culture plate in the presence of 6 and 60 μM of adhesamine, respectively (FIG. 1D). Removal of adhesamine by washing the plate twice with PBS detached the cells. 93% of Jurkat cells were released from the surface of a culture plate 24 hour after washing (FIG. 2). […] Simply adding adhesamine to the medium promoted adhesion of Jurkat cells onto culture plates, but not to each other.

HepG2 cells [2] = assay: Confocal imaging of fluorescent compounds; type: cell-based; settings: for localization of the fluorescent compound: HepG2, 6 μM, 3 hours
Procedure: HepG2 cells were incubated with Compound 4 (6 μM, A and C) or Compound 5 (6 μM, B and D) for 3 hours after seeding.
(§1) In (A) and (B), Jurkat cells (A) or HepG2 cells (B) were pretreated with 0.02 units/mL of heparinase, heparitinase I, and heparitinase II, or 0.1 units/mL of protease-free chondroitinase ABC in a serum-free culture medium for 1 hour at 37° C. before evaluating cell adhesion. The treated cells were seeded onto adhesamine-added or fibronectin-coated plastic wells. The attached cells were counted at 5 hours after seeding. The concentrations of adhesamine and fibronectin were 6 μM and 5 μg/mL, respectively. Each point represents the means±SD. (C) and (D) show localization of Compound 4 in HepG2 cells treated with heparinase/heparitinase I/heparitinase II (C) or chondroitinase ABC (D).
HepG2 cell suspension (100 μL) were seeded on a 96-well plate (Greiner bio-one) at a density of 2×10^5 cells/mL, and the cells were incubated with Compounds 4 and 5 for 3 hours at 37° C., at a concentration of 6 μM. After incubation, medium exchange was performed, and the cells were then subjected to fluorescent microscopic observation. Microscopic images of the cells were captured by a Yokogawa CSU22 confocal fluorescence microscope with 405 nm laser excitation.

[3] = tested on: adhesamine (6 μM)-induced cell attachment of Jurkat cells; assay: Squelching assay; type: cell-based, human; settings: for IC50: adhesamine 6 μM, Jurkat cells
Procedure: Adhesamine (1: 0.6 nmol) and each glycosaminoglycan (GAG) (heparin, heparan sulfate, chondroitin sulfate, keratan sulfate, hyaluronic acid, and heparin oligosaccharides) ranging from 0.006 to 12 nmol were stirred in 10 μL of 50 mM phosphate buffer (pH 6.0) containing 100 mM NaCl and 1% DMSO with a vortex mixer at room temperature for 30 min. Thereafter, these mixtures were transferred to 96-well plates, and 90 μL of Jurkat cell suspension (1×10^5 cells/mL) was added to each well. After 5-hour incubation at 37° C., non-adherent cells were removed by washing each well with PBS twice, and the attached cells were counted with a Neubauer counting chamber (Digital Bio). To calculate the inhibition rates, the number of attached cells in the wells supplied only with 1% DMSO or GAG of each concentration was subtracted from the number of cells in which the cell adhesions were observed after addition of the samples. The inhibition rate is expressed as follows.
wherein AC+(−)GAGs, +(−)adhesamine expresses the number of adhered cells in the presence (absence) of GAGs and adhesamine.
IC50 values are defined as the concentrations of GAGs required for 50% inhibition of the adhesamine (6 μM)-induced cell attachment. The results of the squelching assays were plotted as percentage of inhibition vs. log (GAG), and IC50 values were determined from curve fits of multiple independent experiments.

Jurkat cells [4] = assay: Enzymatic treatment of cells, cell adhesion, Jurkat; type: cell-based, human; settings: heparinases 0.02 units/mL, chondroitinase ABC 0.1 units/mL
Procedure: as §1
Jurkat cells (5×10^4) were cultured in 100 μL of RPMI and treated with a combination of heparinase, heparitinase I, and heparitinase II (0.02 units/mL) or chondroitinase ABC (0.1 units/mL) for 30 min at room temperature. The ability of the treated cells to respond to adhesamine was evaluated by counting the cells that were attached to plastic wells of a 96-well plate in the presence of adhesamine (6 μM).

HepG2 cells [5] = assay: Enzymatic treatment of cells, cell adhesion, HepG2; type: cell-based; settings: heparinases 0.02 units/mL, chondroitinase ABC 0.1 units/mL
Procedure: as §1
The effects of these GAG-degrading enzymes on the intact or adhesamine-enhanced attachment of HepG2 cells were examined. […] As observed in Jurkat cells, adhesamine-induced cell adhesion was canceled by heparan sulfate-degrading enzymes, but not by chondroitinase ABC (FIG. 9B).

Jurkat cells [6] = assay: Cytoskeletal disruption, cell adhesion; type: cell-based, human; settings: for effect on adhesamine-mediated cell adhesion: adhesamine 6 μM, cytochalasin B 0-100 μM or nocodazole 0-0.5 μM; for effect on fibronectin-mediated cell adhesion: fibronectin-coated plate; for effect on cell attachment induced by poly-L-lysine: poly-L-lysine-coated plate
Procedure: Jurkat cells were adhered to plastic plates by adding adhesamine thereto in the presence of nocodazole (a tubulin inhibitor) or cytochalasin B (an actin inhibitor). Both nocodazole and cytochalasin inhibited adhesamine-induced cell adhesion, as observed in the cells adhered to a fibronectin-coated plate. […] The concentration of adhesamine was 6 μM. The fibronectin- or poly-L-lysine-coated plates were prepared by pretreating wells of 96-well plates with fibronectin or poly-L-lysine (1 ng/well).
Jurkat cells (5×10^4) were cultured in 100 μL of RPMI, and incubated with cytochalasin B (0-100 μM) or nocodazole (0-0.5 μM) at 37° C. The treated cells were then assayed for their responses to adhesamine (6 μM). Their responses to fibronectin- or poly-L-lysine-coated plates were also evaluated. The coated plates were prepared by pretreating wells of 96-well plates with fibronectin or poly-L-lysine (1 ng/well).

Jurkat cells [7] = assay: Microinjection of Alexa Fluor 594; type: cell-based, human; settings: 5 μg/mL reagent
Procedure: The concentration of the reagents used was 5 μg/mL.
The solutions of adhesamine (1), Type I collagen, poly-L-lysine hydrochloride, and fibronectin were prepared by diluting with PBS containing 1% (v/v) DMSO. 10 μL of each solution (1 mg/mL) was added to glass bottom culture dishes (35 mm uncoated dish). 2 mL of cell suspension in a culture medium was added to each well at a density of 2×10^5 cells/mL. After 14-hour incubation at 37° C., Alexa Fluor 594 (Molecular Probes, USA) at a concentration of 5 mg/mL was injected into Jurkat cells by using a CI-2000 automated cell injection system (Fujitsu, Japan). Success rates of the microinjection were evaluated by direct observation of the fluorescent cells through a fluorescent-microscopic window of the injection system. The data shown are means±SD for a minimum of three experiments. 20 cells were injected in each experiment.

[8] = tested on: focal adhesion kinase (FAK); assay: Western blotting, FAK activation; type: cell-based, human; settings: Jurkat, adhesamine 6 μM, excess heparin or RGD peptide (100 μg/mL)
Procedure: (§2) Jurkat cells were treated with adhesamine (6 μM) in a serum-poor culture medium (0.1% FBS) for the indicated periods of time. The treated cell lysates were Western blotted with antibodies against FAK phospho-tyrosine^397 (pFAK), FAK, ERK1/2 phospho-threonine^202/tyrosine^204 (pERK) or ERK. In (B), Jurkat cells were incubated for 5 hours with varied concentrations of adhesamine or poly-L-lysine. The cell lysates were Western blotted with antibodies against FAK phospho-tyrosine^397 or FAK. […] The concentration of adhesamine (1) was 6 μM.
(§3) Jurkat cells were maintained in an RPMI medium containing 10% FBS. 5-6 million Jurkat cells were dispensed to a well of a 6-well plate in a final volume of 2 mL, and then incubated at 37° C. for 0-5 hours in the presence of adhesamine or poly-L-lysine. Non-adherent cells were removed and pelleted, and the remaining adherent cells were lysed in a 125 mM Tris-HCl buffer (pH 6.8) containing 4% SDS, 10% glycerol, 0.006% bromophenol blue, and 1.8% β-mercaptoethanol. The adherent cell homogenate was combined with pelleted nonadherent cells from the same well, and the combined sample was boiled for 5 minutes. The samples were separated by SDS-PAGE and electroblotted onto a nitrocellulose membrane. The membranes were blocked in 1% BSA and incubated with primary antibody, and then with horseradish peroxidase-conjugated secondary antibody. The blots were developed using the enhanced chemiluminescence technique.

[9] = tested on: extracellular signal-regulated kinase (ERK); assay: Western blotting, ERK activation; type: cell-based, human; settings: Jurkat, excess amounts of heparin
Procedure: as §2
as §3, with “The blots were developed using the enhanced chemiluminescence technique.” left out

[10] = read-out: IC50 (GAGs, 50% inhibition of adhesamine-induced cell attachment)

## C1C[N+]2(CCN1)CC[N+]1(CCNCC1)CC2.[Br-].[Br-] [Compound 2, 3,12-diaza-6,9-diazoniadispiro-(5,2,5,2)-hexadecane dibromide, reference compound]
Jurkat cells [1]
  cell-adhesion promoting activity of adhesamine derivatives: completely eliminated the activity

## CSc1nc(Cl)c(C=O)c(N2CC[N+]3(CC2)CC[N+]2(CCN(c4ncnc(N5CC[N+]6(CC5)CC[N+]5(CCN(c7nc(SC)nc(Cl)c7C=O)CC5)CC6)c4[N+](=O)[O-])CC2)CC3)n1.[Cl-].[Cl-].[Cl-].[Cl-] [Compound 8]
Jurkat cells [1]
  Jurkat cell adhesion rate (%) in 6 μM of Adhesamine: 28 ± 4.1%

## CSc1nc(Cl)c(C=NNS(=O)(=O)c2cccc3c(N(C)C)cccc23)c(N2CC[N+]3(CC2)CC[N+]2(CCN(c4nc(SC)nc(Cl)c4C=NNS(=O)(=O)c4cccc5c(N(C)C)cccc45)CC2)CC3)n1 [Compound 4]
Jurkat cells [1]
  cell-adhesion promoting activity of adhesamine derivatives: maintained the cell-adhesion promoting activity
HepG2 cells [2]
  localization of the fluorescent compound: on the cell surface
HepG2 cells [2]; HepG2 cells treated with chondroitinase
  localization of the fluorescent probe: no impact on the cell-surface localization
HepG2 cells [2]; HepG2 cells treated with heparan sulfate-degrading enzymes
  localization of the fluorescent probe: diffused from the cell surface

## CSc1nc(Cl)c(CO)c(N2CC[N+]3(CC2)CC[N+]2(CCN(c4nc(SC)nc(Cl)c4CO)CC2)CC3)n1 [Compound 3]
Jurkat cells [1]
  cell-adhesion promoting activity of adhesamine derivatives: no impact on activity

## Heparan sulfate
[3]; [10]
  IC50: 790 nM

## chondroitinase ABC
Jurkat cells [4]
  effect on adhesamine-induced cell attachment: no detectable effects
HepG2 cells [5]
  inhibition of intact attachment of HepG2 cells: 7%

## Keratan sulfate
[3]; [10]
  IC50: 1030 nM

## COC(=O)Nc1nc2ccc(C(=O)c3cccs3)cc2[nH]1 [nocodazole]
Jurkat cells [6]
  effect on adhesamine-mediated cell adhesion: inhibited
  effect on fibronectin-mediated cell adhesion: impaired
  effect on cell attachment induced by poly-L-lysine: no detectable effects; also recorded: hardly inhibited

## CN(C)c1cccc2c(S(=O)(=O)N3CC[N+]4(CC3)CC[N+]3(CCN(S(=O)(=O)c5cccc6c(N(C)C)cccc56)CC3)CC4)cccc12 [Compound 5]
Jurkat cells [1]
  cell-adhesion promoting activity of adhesamine derivatives: little effect on cell adhesion
HepG2 cells [2]
  localization of the fluorescent compound: no clear localization

## fibronectin: fibronectin from bovine plasma, plate-coating reagent
Jurkat cells [7]
  microinjection success rates: up to 30%

## O=[N+]([O-])c1c(Cl)ncnc1N1CC[N+]2(CC1)CC[N+]1(CCN(c3ncnc(Cl)c3[N+](=O)[O-])CC1)CC2 [Compound 6]
Jurkat cells [1]
  Jurkat cell adhesion rate (%) in 6 μM of Adhesamine: 22 ± 3.2%

## Heparin [reference compound]
[3]; [10]
  IC50: 270 nM
[3]; read-out: IC50 (heparin oligosaccharides, 50% inhibition of adhesamine-induced cell attachment)
  IC50: 270 ± 50 nM
[8]
  effect on adhesamine-induced phosphorylation of FAK: reduced
[9]
  effect on adhesamine-induced ERK activation: blocked

## C=C1[C@@H](C)[C@H]2[C@H](Cc3ccccc3)NC(=O)[C@]23OC(=O)/C=C/[C@H](O)CCC[C@@H](C)C/C=C/[C@H]3[C@@H]1O [cytochalasin B]
Jurkat cells [6]
  effect on adhesamine-mediated cell adhesion: inhibited
  effect on fibronectin-mediated cell adhesion: impaired
  effect on cell attachment induced by poly-L-lysine: no detectable effects; also recorded: hardly inhibited

## O=[N+]([O-])c1c(N2CC[N+]3(CC2)CC[N+]2(CCNCC2)CC3)ncnc1N1CC[N+]2(CC1)CC[N+]1(CCNCC1)CC2.[Cl-].[Cl-].[Cl-].[Cl-] [Compound 7]
Jurkat cells [1]
  Jurkat cell adhesion rate (%) in 6 μM of Adhesamine: 21 ± 1.3%

## Hyaluronic acid
[3]; GAG added to the medium together with adhesamine
  ability to squelch the activity of adhesamine: no detectable effect
[3]; [10]
  IC50: > 120000 nM

## Clc1nc(Cl)nc(N2CC[N+]3(CC2)CC[N+]2(CCN(c4nc(Cl)nc(Cl)n4)CC2)CC3)n1 [Compound 9]
Jurkat cells [1]
  Jurkat cell adhesion rate (%) in 6 μM of Adhesamine: 35 ± 5.2%
